Reference: patent US7407961B2, “Pyrazine derivatives and pharmaceutical use thereof” (Astellas Pharma Inc., priority 2003, dated 2008)

How the values were obtained:
human A1 receptor = molecular target: T1, human A1 receptor (Homo sapiens, UniProt P30542); assay: Adenosine antagonistic activity, radioligand binding with [3H]DPCPX; conditions: [3H]DPCPX 4.5 nM
T1 sequence (P30542 1-326): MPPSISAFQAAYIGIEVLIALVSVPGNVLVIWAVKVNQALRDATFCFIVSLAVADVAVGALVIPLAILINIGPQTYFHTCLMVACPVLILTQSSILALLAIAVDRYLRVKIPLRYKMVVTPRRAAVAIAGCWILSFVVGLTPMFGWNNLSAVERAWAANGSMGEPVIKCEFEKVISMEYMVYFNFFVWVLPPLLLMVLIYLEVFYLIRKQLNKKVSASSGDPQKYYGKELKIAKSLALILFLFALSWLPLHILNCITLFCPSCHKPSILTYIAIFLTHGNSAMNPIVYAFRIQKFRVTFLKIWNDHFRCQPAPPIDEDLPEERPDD
Experimental: (§1) Test 1: Adenosine Antagonistic Activity
(§2) The adenosine antagonistic activity [Ki(nM)] of the test compound was examined by radioligand binding techniques using 8-cyclopentyl-1,3-dipropylxanthine, [dipropyl-2,3-^3H(N)] ([^3H]DPCPX, 4.5 nM) for human A1 receptor and [^3H]CGS 21680 (20 nM) for human A2a receptor.

human A2a receptor = human A2a receptor (Homo sapiens, UniProt P29274); assay: Adenosine antagonistic activity, radioligand binding with [3H]CGS 21680; conditions: [3H]CGS 21680 20 nM
Experimental: as §1, §2

ddY mice = assay: Anticatalepsy activity in mouse (haloperidol-induced catalepsy, bar test); assay type: in vivo; conditions: 3.2 mg/kg orally, ddY mice n=7; haloperidol 0.32 mg/kg i.p. 30 min later; measured 30 min after injection
Experimental: Test 2: Anticatalepsy Activity in Mouse [I] Test Method
The test compound (3.2 mg/kg) was administered orally with ddY mice (n=7). Then, haloperidol (0.32 mg/kg) was injected intraperitoneally 30 min. after the administration of the compound. Thirty min after the injection, the cataleptic responses of mice were measured. The forelimbs of each mouse were placed on a 3 cm high, 3 mm wide horizontal bar, and the duration of cataleptic posture was measured for up to 30 sec.

human A2a receptor, sequence (P29274 whole entry): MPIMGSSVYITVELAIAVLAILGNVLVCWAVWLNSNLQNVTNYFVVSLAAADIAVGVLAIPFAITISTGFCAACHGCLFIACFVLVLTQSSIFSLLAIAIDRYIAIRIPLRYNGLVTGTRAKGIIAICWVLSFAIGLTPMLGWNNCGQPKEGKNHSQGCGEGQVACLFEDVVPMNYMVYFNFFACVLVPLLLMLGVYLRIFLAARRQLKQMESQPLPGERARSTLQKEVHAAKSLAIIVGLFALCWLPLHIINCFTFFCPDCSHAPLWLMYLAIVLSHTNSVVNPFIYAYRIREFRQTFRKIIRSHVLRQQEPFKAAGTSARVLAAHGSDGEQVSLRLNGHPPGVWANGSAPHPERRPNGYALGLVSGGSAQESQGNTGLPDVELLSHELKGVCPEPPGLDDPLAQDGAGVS

SMILES	Ki (human A1 receptor)	Ki (human A2a receptor)	melting point	Manifestation rate of Catalepsy (number of mouse) (ddY mice)
CCn1cc(-c2nc(C(N)=O)c(N)nc2-c2ccccc2)ccc1=O [Example 4, 3-Amino-6-(1-ethyl-6-oxo-1,6-dihydro-3-pyridyl)-5-phenyl-2-pyrazinecarboxamide]	5.09 nM	2.34 nM	> 250 °C	0/7
CC(C)n1cc(-c2nc(C#N)c(N)nc2-c2ccccc2)ccc1=O [Example 14, 3-Amino-6-(1-isopropyl-6-oxo-1,6-dihydro-3-pyridyl)-5-phenyl-2-pyrazinecarbonitrile]	–	–	204.5 °C	–
CC(C)n1cc(-c2ncc(N)nc2-c2cccs2)ccc1=O [Example 115, 5-[5-Amino-3-(2-thienyl)-2-pyrazinyl]-1-isopropyl-2(1H)-pyridone]	4.89 nM	0.84 nM	–	0/7
CC(C)n1cc(-c2ncc(N)nc2-c2cc(F)cc(F)c2)ccc1=O [Example 129, 5-[5-Amino-3-(3,5-difluorophenyl)-2-pyrazinyl]-1-isopropyl-2(1H)-pyridone]	10.7 nM	3.9 nM	–	0/7
CC(C)n1cc(-c2nc(Oc3ccccc3)c(N)nc2-c2ccccc2)ccc1=O [Example 151, 5-(5-amino-6-phenoxy-3-phenyl-2-pyrazinyl)-1-isopropyl-2(1H)-pyridone]	1.57 nM	0.32 nM	–	0/7

More lines, in order of falling Ki (human A1 receptor), values ahead:

Ki (human A1 receptor)	Ki (human A2a receptor)	melting point	SMILES	Manifestation rate of Catalepsy (number of mouse) (ddY mice)
24 nM	6.52 nM	–	CC(C)n1cc(-c2nc(C#N)c(N)nc2-c2ccc(F)c(F)c2)ccc1=O [Example 39, 3-Amino-5-(3,4-difluorophenyl)-6-(1-isopropyl-6-oxo-1,6-dihydro-3-pyridyl)-2-pyrazinecarbonitrile]	0/7
22.5 nM	2.35 nM	–	Cn1cc(-c2nc(C#N)c(N)nc2-c2ccccc2)ccc1=O [Example 11, 3-amino-6-(1-methyl-6-oxo-1,6-dihydro-3-pyridyl)-5-phenyl-2-pyrazinecarbonitrile]	0/7
22.3 nM	7.52 nM	–	CC(C)n1cc(-c2nc(CO)c(N)nc2-c2ccccc2)ccc1=O [Example 47, 5-[5-amino-6-(hydroxymethyl)-3-phenyl-2-pyrazinyl]-1-isopropyl-2(1H)-pyridone]	1/7
6.07 nM	1.69 nM	–	CC(C)n1cc(-c2nc(C(=O)NCCO)c(N)nc2-c2ccccc2)ccc1=O [Example 49, 3-Amino-N-(2-hydroxyethyl)-6-(1-isopropyl-6-oxo-1,6-dihydro-3-pyridyl)-5-phenyl-2-pyrazinecarboxamide]	1/7
5.25 nM	1.49 nM	–	CC(C)n1cc(-c2nc(C(=O)NCC#N)c(N)nc2-c2ccccc2)ccc1=O [Example 46, 3-Amino-N-(cyanomethyl)-6-(1-isopropyl-6-oxo-1,6-dihydro-3-pyridyl)-5-phenyl-2-pyrazinecarboxamide]	0/7
1.78 nM	0.54 nM	–	CC(C)n1cc(-c2nc(-c3ccco3)c(N)nc2-c2ccccc2)ccc1=O [Example 144, 5-[5-Amino-6-(2-furyl)-3-phenyl-2-pyrazinyl]-1-isopropyl-2(1H)-pyridone]	0/7
0.93 nM	0.91 nM	–	CC(C)n1cc(-c2nc(Br)c(N)nc2-c2ccccc2)cc(Br)c1=O [Example 53, 5-(5-amino-6-bromo-3-phenyl-2-pyrazinyl)-3-bromo-1-isopropyl-2(1H)-pyridone]	0/7
0.61 nM	0.23 nM	–	CC(C)n1cc(-c2nc(Br)c(N)nc2-c2ccccc2)ccc1=O [Example 141, 5-(5-amino-6-bromo-3-phenyl-2-pyrazinyl)-1-isopropyl-2(1H)-pyridone]	0/7
